Columns and labels:
ELN (elastin gene) = experiment: Human gene microarray, Elastin gene expression in normal human dermal fibroblasts; assay type: cell-based; details: for expression levels of elastin gene: an appropriate amount
Procedure: (§1) Normal human dermal fibroblasts were grown in culture flasks until confluent using appropriate culture conditions. […] A separate flask of cells was treated with culture media alone and acted as an untreated control. After applying the test material the cells the cells were incubated for 24 hours at 37±2° C. and 5±1% CO2. At the end of the incubation period the culture media was removed via aspiration and the cells were washed once with cold phosphate buffered saline. After removing the wash the cells they were lysed by adding 700 μl of guanidinium thiocyanate lysis solution. The cell lysate was stored at −75° C. until the RNA extraction process could be completed (see below).
(§2) To the cell lysates prepared above, an equal volume of 64% ethanol was added and the tubes were vortexed. After combining, up to 700 μl of the mixture was transferred to a glass fiber filter cartridge, and the cartridge was loaded into a 1.5 ml collection tube and the cartridge was centrifuged for 1 minute at 14,000 RPM. The flow through was discarded and any remaining mixture was loaded into the filter cartridge and the centrifugation process was repeated until all of the mixture had been processed. The filter was then washed to remove any residual cellular debris from the RNA bound to the glass fibers by subsequently applying 700 μl of wash solution 1 (1 time) and 500 μl of wash solution 2 (2 times) to the filter cartridge and centrifuging at 14,000 RPM for 1 minute to pass each wash through the cartridge. After each wash the flowthrough was discarded. After the final wash one final spin was performed without wash solution to remove any residual wash solution in the filter cartridge. The RNA bound to the glass fibers within the cartridge was eluted by applying 30 μl of Tris-EDTA buffer (10 mM Tris-HCl, 1 mM EDTA, preheated to 70-80° C.) to the cartridge and centrifuging the cartridge in a new collection tube at 14,000 RPM for one minute. The elution process was repeated with an additional 30 μl of preheated TE buffer. After the RNA was eluted its concentration was quantified using a Ribogreen assay.
(§3) mRNA Amplification (Ambion MessageAmnp aRNA kit) First Strand cDNA Synthesis: To start the first strand synthesis, 5 μg of total RNA for each sample was added to 600 μl PCR tubes and the total volume of liquid in the tube was adjusted to 12 μl with DEPC H2O. To each tube, 1 μl of T7 Oligo(dT) primer was added and the tube was incubated at 70±2° C. for 10 minutes to denature the RNA and then placed on ice to allow the primer to anneal to the poly A ends of the mRNA. After cooling 2 μl of 10× first strand buffer, 1 μl of RNAse inhibitor and 4 μl of dNTP Mix were added to each tube, and each tube was placed at 42° C. 1 μl of Reverse Transcriptase was added and the tubes were heated and maintained at 42±2° C. for 2 hours. […]
(§4) Second Strand Synthesis and cDNA Purification: For the synthesis of the second strand of cDNA the following items were added to the tubes above (in this order): 63 μl DEPC H2O, 10 μl 10× second strand buffer, 4 μl dNTP mix, 2 μl DNA Polymerase and 1 μl of RNAse H. The tube was mixed and then incubated at 16±2° C. for 2 hours. Towards the end of the 2 hour incubation a sufficient quantity of DEPC H2O was warmed to 50±2° C. and a cDNA purification filter cartridge was equilibrated with 50 μl of cDNA binding buffer (one cartridge per sample) for at least 5 minutes. […]

[1] = test system: COL1A1 (collagen 1A1 gene); experiment: Human gene microarray, Type 1A1 Collagen gene expression in normal human dermal fibroblasts; assay type: cell-based; details: for expression levels of collagen 1A1 gene: an appropriate amount
Procedure: as §1, §2, §3, §4

[2] = concentration from 0.0001 to 0.05%
[3] = normal human dermal fibroblasts, 0.05%
[4] = normal human dermal fibroblasts, 0.05% pomiferin, 24 hours, fluorescence intensity, Cy5 (treated) channel

SMILES	expression levels of elastin gene (ELN (elastin gene))	expression levels of collagen 1A1 gene [1]	increasing elastin gene expression (ELN (elastin gene); [2])	elastin gene expression compared to untreated cells (ELN (elastin gene); [3])	F635 Median, ELN (ELN (elastin gene); [4])	increasing collagen 1A1 gene expression [1, 2]	collagen 1A1 gene expression compared to untreated cells [1, 3]	F635 Median, COL1A1 [1, 4]
CC(C)=CCc1c2c(c3occ(-c4ccc(O)cc4)c(=O)c3c1O)C=CC(C)(C)O2 [osajin]	significantly increase	significantly increase						
CC(C)=CCc1c2c(c3occ(-c4ccc(O)c(O)c4)c(=O)c3c1O)C=CC(C)(C)O2 [pomiferin]	significantly increase	significantly increase	equally effective	statistically significant increase	3010	equally effective	statistically significant increase	38576

— patent US9000033B2, “Composition for improving skin condition and appearance” (Arch Personal Care Products, L.P., priority 2008, dated 2015)
